In the supplement of paper PMC10307832:

Key:
Experiment in all cases: relative viability (nuclei count vs DMSO), 5 days (fraction); higher = more cells survive
[1] = system: HCC-78
Outline: (§1)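 Relative viability is defined as nuclei in treated wells over nuclei in vehicle wells. Duplicate plates were run and medians reported. Lung cancer cell lines in 1536-well plates were dosed by pin tool one day after seeding, with one drug or with a fixed anchor-drug dose plus five library-drug doses (not always all listed) in √10 steps, and nuclei were counted after 5 days.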

[2] = system: LOU-NH91
Outline: as §1

[3] = system: UMC-11
Outline: as §1

[4] = system: SW 1573
Outline: as §1

[5] = system: NCI-H727
Outline: as §1

[6] = system: NCI-H1650
Outline: as §1

[7] = system: NCI-H2347
Outline: as §1

[8] = system: NCI-H1755
Outline: as §1

[9] = system: ABC-1
Outline: as §1

[10] = system: LK-2
Outline: as §1

[11] = system: NCI-H2228
Outline: as §1

[12] = system: HCC-44
Outline: as §1

[13] = system: NCI-H358
Outline: as §1

[14] = system: NCI-H1703
Outline: as §1

[15] = system: NCI-H838
Outline: as §1

[16] = system: NCI-H1666
Outline: as §1

[17] = system: 201T
Outline: as §1

[18] = system: NCI-H1355
Outline: as §1

[19] = system: NCI-H2009
Outline: as §1

[20] = system: BEN
Outline: as §1

[21] = system: HCC-366
Outline: as §1

[22] = system: NCI-H2405
Outline: as §1

[23] = system: NCI-H520
Outline: as §1

[24] = system: IA-LM
Outline: as §1

[25] = system: NCI-H1734
Outline: as §1

## CCCCCCCCCCCC1=C(O)C(=O)C=C(O)C1=O [Embelin] + C[C@@H](Oc1cc(-c2cnn(C3CCNCC3)c2)cnc1N)c1c(Cl)ccc(F)c1Cl [Crizotinib] (partner 1 µM)
[1]; first compound 0.08 µM
  relative viability: 0.344
[1]; first compound 0.8 µM
  relative viability: 0.373
[1]; first compound 2.53 µM
  relative viability: 0.347
[1]; first compound 8 µM
  relative viability: 0.321
[2]; first compound 0.08 µM
  relative viability: 0.764
[2]; first compound 0.8 µM
  relative viability: 0.751
[2]; first compound 2.53 µM
  relative viability: 0.763
[2]; first compound 8 µM
  relative viability: 0.741
[3]; first compound 0.08 µM
  relative viability: 0.639
[3]; first compound 0.8 µM
  relative viability: 0.618
[3]; first compound 2.53 µM
  relative viability: 0.644
[3]; first compound 8 µM
  relative viability: 0.572
[4]; first compound 0.08 µM
  relative viability: 0.808
[4]; first compound 0.8 µM
  relative viability: 0.977
[4]; first compound 2.53 µM
  relative viability: 0.84
[4]; first compound 8 µM
  relative viability: 0.887
[5]; first compound 0.08 µM
  relative viability: 0.938
[5]; first compound 0.8 µM
  relative viability: 0.924
[5]; first compound 2.53 µM
  relative viability: 1.06
[5]; first compound 8 µM
  relative viability: 0.898
[6]; first compound 0.08 µM
  relative viability: 0.954
[6]; first compound 0.8 µM
  relative viability: 1.04
[6]; first compound 2.53 µM
  relative viability: 0.981
[6]; first compound 8 µM
  relative viability: 1.16
[7]; first compound 0.08 µM
  relative viability: 0.784
[7]; first compound 0.8 µM
  relative viability: 0.868
[7]; first compound 2.53 µM
  relative viability: 0.778
[7]; first compound 8 µM
  relative viability: 0.622
[8]; first compound 0.08 µM
  relative viability: 0.829
[8]; first compound 0.8 µM
  relative viability: 0.877
[8]; first compound 2.53 µM
  relative viability: 0.921
[8]; first compound 8 µM
  relative viability: 0.871
[9]; first compound 0.08 µM
  relative viability: 0.896
[9]; first compound 0.8 µM
  relative viability: 1.26
[9]; first compound 2.53 µM
  relative viability: 1.7
[9]; first compound 8 µM
  relative viability: 1.21
[10]; first compound 0.08 µM
  relative viability: 0.227
[10]; first compound 0.8 µM
  relative viability: 0.316
[10]; first compound 2.53 µM
  relative viability: 0.229
[10]; first compound 8 µM
  relative viability: 0.208
[11]; first compound 0.08 µM
  relative viability: 0.437
[11]; first compound 0.8 µM
  relative viability: 0.579
[11]; first compound 2.53 µM
  relative viability: 0.431
[11]; first compound 8 µM
  relative viability: 0.426
[12]; first compound 0.08 µM
  relative viability: 0.771
[12]; first compound 0.8 µM
  relative viability: 0.803
[12]; first compound 2.53 µM
  relative viability: 0.826
[12]; first compound 8 µM
  relative viability: 0.829
[13]; first compound 0.08 µM
  relative viability: 0.635
[13]; first compound 0.8 µM
  relative viability: 0.851
[13]; first compound 2.53 µM
  relative viability: 0.547
[13]; first compound 8 µM
  relative viability: 0.791
[14]; first compound 0.08 µM
  relative viability: 0.8
[14]; first compound 0.8 µM
  relative viability: 1.17
[14]; first compound 2.53 µM
  relative viability: 0.806
[14]; first compound 8 µM
  relative viability: 0.975
[15]; first compound 0.08 µM
  relative viability: 0.874
[15]; first compound 0.8 µM
  relative viability: 0.995
[15]; first compound 2.53 µM
  relative viability: 0.961
[15]; first compound 8 µM
  relative viability: 1.02
[16]; first compound 0.08 µM
  relative viability: 0.975
[16]; first compound 0.8 µM
  relative viability: 1.24
[16]; first compound 2.53 µM
  relative viability: 1.05
[16]; first compound 8 µM
  relative viability: 1.01
[17]; first compound 0.08 µM
  relative viability: 1.02
[17]; first compound 0.8 µM
  relative viability: 1.07
[17]; first compound 2.53 µM
  relative viability: 1.04
[17]; first compound 8 µM
  relative viability: 1.06
[18]; first compound 0.08 µM
  relative viability: 1.08
[18]; first compound 0.8 µM
  relative viability: 1.18
[18]; first compound 2.53 µM
  relative viability: 1.17
[18]; first compound 8 µM
  relative viability: 0.974
[19]; first compound 0.08 µM
  relative viability: 1.04
[19]; first compound 0.8 µM
  relative viability: 1.12
[19]; first compound 2.53 µM
  relative viability: 1.11
[19]; first compound 8 µM
  relative viability: 1.06
[20]; first compound 0.08 µM
  relative viability: 0.845
[20]; first compound 0.8 µM
  relative viability: 1.18
[20]; first compound 2.53 µM
  relative viability: 1.17
[20]; first compound 8 µM
  relative viability: 0.849
[21]; first compound 0.08 µM
  relative viability: 0.633
[21]; first compound 0.8 µM
  relative viability: 0.572
[21]; first compound 2.53 µM
  relative viability: 1.02
[21]; first compound 8 µM
  relative viability: 0.637
[22]; first compound 0.08 µM
  relative viability: 0.908
[22]; first compound 0.8 µM
  relative viability: 0.976
[22]; first compound 2.53 µM
  relative viability: 0.892
[22]; first compound 8 µM
  relative viability: 0.955
[23]; first compound 0.08 µM
  relative viability: 0.894
[23]; first compound 0.8 µM
  relative viability: 1
[23]; first compound 2.53 µM
  relative viability: 1.07
[23]; first compound 8 µM
  relative viability: 0.782
[24]; first compound 0.08 µM
  relative viability: 0.718
[24]; first compound 0.8 µM
  relative viability: 0.85
[24]; first compound 2.53 µM
  relative viability: 0.729
[24]; first compound 8 µM
  relative viability: 0.743
[25]; first compound 0.08 µM
  relative viability: 0.71
[25]; first compound 0.8 µM
  relative viability: 0.825
[25]; first compound 2.53 µM
  relative viability: 0.693
[25]; first compound 8 µM
  relative viability: 0.747
